Target: T1, human acetyl-CoA carboxylase 2 (ACC2) (Homo sapiens, UniProt O00763)
T1 construct: The cDNA encoding amino acids 144 to 2458 of human acetyl-CoA carboxylase 2; made in house; host or cells: Sf9 insect cells (baculovirus, pFastBac1)
Assay: Acetyl-CoA carboxylase enzyme assay (malonyl-CoA formation by LC/MS/MS)
Format: biochemical
Settings: recombinant human ACC2 (aa 144-2458); read-out: IC50 ACC2
How it was run: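 Malonyl-CoA formation was read by LC/MS/MS MRM against a [13C3]-malonyl-CoA internal standard, after acetic acid quench. The enzyme was baculovirus/Sf9-expressed human ACC2 residues 144–2458, given 15 minutes room-temperature compound preincubation in HEPES pH 7.5 buffer with MgCl2, citrate and DTT. Substrate solution held 50 μM acetyl-CoA, 120 μM ATP and 2 mM KHCO3.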

T1 sequence (O00763 144-2458): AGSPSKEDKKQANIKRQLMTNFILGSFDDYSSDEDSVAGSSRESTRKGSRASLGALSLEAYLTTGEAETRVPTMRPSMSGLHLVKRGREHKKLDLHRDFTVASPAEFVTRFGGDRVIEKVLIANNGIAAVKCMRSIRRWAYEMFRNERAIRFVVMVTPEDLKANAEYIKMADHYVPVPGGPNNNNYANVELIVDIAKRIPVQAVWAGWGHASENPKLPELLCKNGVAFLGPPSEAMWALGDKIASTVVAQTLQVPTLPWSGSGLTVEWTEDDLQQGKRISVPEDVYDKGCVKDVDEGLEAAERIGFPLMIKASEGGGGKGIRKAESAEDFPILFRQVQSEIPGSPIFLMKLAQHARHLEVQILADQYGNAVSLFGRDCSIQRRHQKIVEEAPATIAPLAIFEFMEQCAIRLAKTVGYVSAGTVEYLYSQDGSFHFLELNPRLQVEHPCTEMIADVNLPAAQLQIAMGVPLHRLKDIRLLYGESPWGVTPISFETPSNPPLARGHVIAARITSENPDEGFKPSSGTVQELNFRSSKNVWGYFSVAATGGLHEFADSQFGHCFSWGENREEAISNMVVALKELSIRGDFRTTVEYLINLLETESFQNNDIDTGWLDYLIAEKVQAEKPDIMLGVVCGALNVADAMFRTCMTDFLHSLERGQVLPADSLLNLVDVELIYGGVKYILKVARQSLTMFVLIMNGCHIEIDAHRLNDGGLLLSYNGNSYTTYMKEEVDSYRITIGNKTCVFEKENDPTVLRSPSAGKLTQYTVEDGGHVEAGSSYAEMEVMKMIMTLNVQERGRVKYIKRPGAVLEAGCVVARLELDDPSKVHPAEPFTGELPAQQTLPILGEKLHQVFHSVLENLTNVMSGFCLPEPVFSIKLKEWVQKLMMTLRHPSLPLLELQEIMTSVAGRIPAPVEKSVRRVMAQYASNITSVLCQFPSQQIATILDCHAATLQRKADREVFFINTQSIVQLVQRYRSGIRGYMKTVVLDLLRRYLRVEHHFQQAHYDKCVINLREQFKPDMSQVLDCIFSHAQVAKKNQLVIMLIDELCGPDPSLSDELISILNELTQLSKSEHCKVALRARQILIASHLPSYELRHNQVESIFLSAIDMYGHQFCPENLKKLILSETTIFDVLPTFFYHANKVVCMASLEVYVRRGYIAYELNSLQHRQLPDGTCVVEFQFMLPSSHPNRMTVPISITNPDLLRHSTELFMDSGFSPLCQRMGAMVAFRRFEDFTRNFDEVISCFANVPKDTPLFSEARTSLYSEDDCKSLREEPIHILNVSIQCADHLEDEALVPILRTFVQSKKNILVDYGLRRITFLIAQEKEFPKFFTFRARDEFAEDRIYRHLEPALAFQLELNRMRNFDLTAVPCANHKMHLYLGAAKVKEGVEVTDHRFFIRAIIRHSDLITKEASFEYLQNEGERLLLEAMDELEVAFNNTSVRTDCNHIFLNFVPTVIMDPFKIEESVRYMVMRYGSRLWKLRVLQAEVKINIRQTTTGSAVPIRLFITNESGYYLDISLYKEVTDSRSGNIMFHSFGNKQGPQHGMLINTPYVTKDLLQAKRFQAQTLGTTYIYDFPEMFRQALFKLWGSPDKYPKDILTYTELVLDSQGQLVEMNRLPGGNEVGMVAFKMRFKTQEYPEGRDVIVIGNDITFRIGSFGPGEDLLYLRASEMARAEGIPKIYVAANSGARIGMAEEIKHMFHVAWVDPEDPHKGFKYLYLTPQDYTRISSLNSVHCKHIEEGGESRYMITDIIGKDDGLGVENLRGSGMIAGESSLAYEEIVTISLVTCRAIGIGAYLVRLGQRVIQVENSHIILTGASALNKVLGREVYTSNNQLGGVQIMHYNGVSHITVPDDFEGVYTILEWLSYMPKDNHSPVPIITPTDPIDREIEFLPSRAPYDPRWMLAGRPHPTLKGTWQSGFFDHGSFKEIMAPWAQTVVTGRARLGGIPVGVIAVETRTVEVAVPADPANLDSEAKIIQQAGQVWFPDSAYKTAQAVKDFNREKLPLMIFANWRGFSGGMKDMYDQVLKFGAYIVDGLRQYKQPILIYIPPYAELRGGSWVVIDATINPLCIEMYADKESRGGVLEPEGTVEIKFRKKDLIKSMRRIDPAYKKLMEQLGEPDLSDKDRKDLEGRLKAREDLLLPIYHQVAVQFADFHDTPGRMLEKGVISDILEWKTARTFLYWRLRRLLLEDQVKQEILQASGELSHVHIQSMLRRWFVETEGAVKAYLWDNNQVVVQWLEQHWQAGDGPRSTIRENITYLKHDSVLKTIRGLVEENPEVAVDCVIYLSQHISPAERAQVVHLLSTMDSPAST

SMILES	IC50
CC(C)c1nnc([C@H]2CC[C@H](NS(=O)(=O)c3ccc4[nH]c(-c5ccc(N6CCOCC6)cc5)nc4c3)CC2)o1 [Example 589, N-((1r,4r)-4-(5-isopropyl-1,3,4-oxadiazol-2-yl)cyclohexyl)-2-(4-morpholinophenyl)-1H-benzo[d]imidazole-5-sulfonamide]	0.516 µM
CC(C)c1nnc(-c2ccc(NS(=O)(=O)c3ccc4[nH]c(-c5ccc(N6CCN(C)CC6)cc5)nc4c3)cc2)o1 [Example 590, N-(4-(5-isopropyl-1,3,4-oxadiazol-2-yl)phenyl)-2-(4-(4-methylpiperazin-1-yl)phenyl)-1H-benzo[d]imidazole-5-sulfonamide]	0.43 µM
CN1CCN(c2ccc(-c3nc4cc(S(=O)(=O)Nc5ccc(-c6nnc(C(C)(C)C)o6)cc5)ccc4[nH]3)cc2)CC1 [Example 592, N-(4-(5-tert-butyl-1,3,4-oxadiazol-2-yl)phenyl)-2-(4-(4-methylpiperazin-1-yl)phenyl)-1H-benzo[d]imidazole-5-sulfonamide]	0.415 µM
CC(C)(C)c1nnc(-c2ccc(NS(=O)(=O)c3ccc4[nH]c(-c5ccc(N6CCOCC6)cc5)nc4c3)cc2)o1 [Example 593, N-(4-(5-tert-butyl-1,3,4-oxadiazol-2-yl)phenyl)-2-(4-morpholinophenyl)-1H-benzo[d]imidazole-5-sulfonamide]	1.01 µM
COc1ccc(Nc2nc3cc(S(=O)(=O)N[C@H]4CC[C@H](c5nnc(C(C)C)o5)CC4)ccc3[nH]2)cc1 [Example 594, N-((1r,4r)-4-(5-isopropyl-1,3,4-oxadiazol-2-yl)cyclohexyl)-2-(4-methoxyphenylamino)-1H-benzo[d]imidazole-5-sulfonamide]	0.202 µM
CC(C)c1nnc([C@H]2CC[C@H](NS(=O)(=O)c3ccc4[nH]c(Nc5ccccc5)nc4c3)CC2)o1 [Example 595, N-((1r,4r)-4-(5-isopropyl-1,3,4-oxadiazol-2-yl)cyclohexyl)-2-(phenylamino)-1H-benzo[d]imidazole-5-sulfonamide]	0.259 µM
CC(C)c1nnc([C@H]2CC[C@H](NS(=O)(=O)c3ccc4[nH]c(Nc5ccc(N6CCOCC6)cc5)nc4c3)CC2)o1 [Example 599, N-((1r,4r)-4-(5-isopropyl-1,3,4-oxadiazol-2-yl)cyclohexyl)-2-(4-morpholinophenylamino)-1H-benzo[d]imidazole-5-sulfonamide]	0.27 µM
CC(C)c1nnc(-c2ccc(NS(=O)(=O)c3ccc4[nH]c(Nc5ccccc5)nc4c3)cc2)o1 [Example 601, N-(4-(5-isopropyl-1,3,4-oxadiazol-2-yl)phenyl)-2-(phenylamino)-1H-benzo[d]imidazole-5-sulfonamide]	0.539 µM
COc1ccc(Nc2nc3cc(S(=O)(=O)Nc4ccc(-c5nnc(C(C)C)o5)cc4)ccc3[nH]2)cc1 [Example 602, N-(4-(5-isopropyl-1,3,4-oxadiazol-2-yl)phenyl)-2-(4-methoxyphenylamino)-1H-benzo[d]imidazole-5-sulfonamide]	0.536 µM
CC(C)c1nnc(-c2ccc(NS(=O)(=O)c3ccc4[nH]c(Nc5ccc(N6CCOCC6)cc5)nc4c3)cc2)o1 [Example 603, N-(4-(5-isopropyl-1,3,4-oxadiazol-2-yl)phenyl)-2-(4-morpholinophenylamino)-1H-benzo[d]imidazole-5-sulfonamide]	0.323 µM
COc1ccc(Nc2nc3cc(S(=O)(=O)Nc4ccc(-c5nnc(C(C)(C)C)o5)cc4)ccc3[nH]2)cc1 [Example 604, N-(4-(5-tert-butyl-1,3,4-oxadiazol-2-yl)phenyl)-2-(4-methoxyphenylamino)-1H-benzo[d]imidazole-5-sulfonamide]	0.676 µM
CC(C)(C)c1nnc([C@H]2CC[C@H](NS(=O)(=O)c3ccc4[nH]c(-c5ccc(F)cc5)nc4c3)CC2)o1 [Example 607, N-((1r,4r)-4-(5-tert-butyl-1,3,4-oxadiazol-2-yl)cyclohexyl)-2-(4-fluorophenyl)-1H-benzo[d]imidazole-5-sulfonamide]	1.09 µM
COC(=O)c1cccc(-c2nc3cc(S(=O)(=O)N[C@H]4CC[C@H](c5nnc(C(C)(C)C)o5)CC4)ccc3[nH]2)c1 [Example 608, methyl 3-(5-(N-((1r,4r)-4-(5-tert-butyl-1,3,4-oxadiazol-2-yl)cyclohexyl)sulfamoyl)-1H-benzo[d]imidazol-2-yl)benzoate]	0.971 µM
CC(C)(C)c1nnc([C@H]2CC[C@H](NS(=O)(=O)c3ccc4[nH]c(-c5ccc(Cl)cc5)nc4c3)CC2)o1 [Example 609, N-((1r,4r)-4-(5-tert-butyl-1,3,4-oxadiazol-2-yl)cyclohexyl)-2-(4-chlorophenyl)-1H-benzo[d]imidazole-5-sulfonamide]	1.22 µM
CC(C)(C)c1nnc([C@H]2CC[C@H](NS(=O)(=O)c3ccc4[nH]c(-c5cccc(C(=O)O)c5)nc4c3)CC2)o1 [Example 610, 3-(5-(N-((1r,4r)-4-(5-tert-butyl-1,3,4-oxadiazol-2-yl)cyclohexyl)sulfamoyl)-1H-benzo[d]imidazol-2-yl)benzoic acid]	1.74 µM
Cc1nc2cc(S(=O)(=O)NC3CCC(c4nnc(C(C)C)o4)CC3)ccc2[nH]1 (stereo not drawn) [Example 613, N-((1r,4r)-4-(5-isopropyl-1,3,4-oxadiazol-2-yl)cyclohexyl)-2-methyl-1H-benzo[d]imidazole-5-sulfonamide]	39.6 µM
Cc1nc2cc(S(=O)(=O)N[C@H]3CC[C@H](c4nnc(C(C)(C)C)o4)CC3)ccc2[nH]1 [Example 615, N-((1r,4r)-4-(5-tert-butyl-1,3,4-oxadiazol-2-yl)cyclohexyl)-2-methyl-1H-benzo[d]imidazole-5-sulfonamide]	11.5 µM
O=C([C@H]1CC[C@H](NS(=O)(=O)c2ccc3[nH]c(-c4ccccc4)nc3c2)CC1)N1CCc2ccccc2C1 [Example 616, 2-phenyl-N-((1r,4r)-4-(1,2,3,4-tetrahydroisoquinoline-2-carbonyl)cyclohexyl)-1H-benzo[d]imidazole-5-sulfonamide]	0.37 µM
O=C([C@H]1CC[C@H](NS(=O)(=O)c2ccc3[nH]c(-c4ccccc4)nc3c2)CC1)N1CCN(c2ccccc2)CC1 [Example 617, 2-phenyl-N-((1r,4r)-4-(4-phenylpiperazine-1-carbonyl)cyclohexyl)-1H-benzo[d]imidazole-5-sulfonamide]	0.996 µM
CN(Cc1ccccc1)C(=O)[C@H]1CC[C@H](NS(=O)(=O)c2ccc3[nH]c(-c4ccccc4)nc3c2)CC1 [Example 619, (1r,4r)-N-benzyl-N-methyl-4-(2-phenyl-1H-benzo[d]imidazole-5-sulfonamido)cyclohexanecarboxamide]	0.558 µM

Stronger by IC50, values ahead:

IC50	SMILES
0.18 µM	COc1ccc(Nc2nc3cc(S(=O)(=O)N[C@H]4CC[C@H](c5nnc(C(C)(C)C)o5)CC4)ccc3[nH]2)cc1 [Example 596, N-((1r,4r)-4-(5-tert-butyl-1,3,4-oxadiazol-2-yl)cyclohexyl)-2-(4-methoxyphenylamino)-1H-benzo[d]imidazole-5-sulfonamide]
0.162 µM	CC(C)(C)c1nnc([C@H]2CC[C@H](NS(=O)(=O)c3ccc4[nH]c(Nc5ccccc5)nc4c3)CC2)o1 [Example 597, N-((1r,4r)-4-(5-tert-butyl-1,3,4-oxadiazol-2-yl)cyclohexyl)-2-(phenylamine)-1H-benzo[d]imidazole-5-sulfonamide]
0.088 µM	CC(C)c1nnc([C@H]2CC[C@H](NS(=O)(=O)c3ccc4[nH]c(Nc5ccc(N6CCN(C)CC6)cc5)nc4c3)CC2)o1 [Example 598, N-((1r,4r)-4-(5-isopropyl-1,3,4-oxadiazol-2-yl)cyclohexyl)-2-(4-(4-methylpiperazin-1-yl)phenylamino)-1H-benzo[d]imidazole-5-sulfonamide]
0.139 µM	CC(C)(C)c1nnc([C@H]2CC[C@H](NS(=O)(=O)c3ccc4[nH]c(Nc5ccc(N6CCOCC6)cc5)nc4c3)CC2)o1 [Example 600, N-((1r,4r)-4-(5-tert-butyl-1,3,4-oxadiazol-2-yl)cyclohexyl)-2-(4-morpholinophenylamino)-1H-benzo[d]imidazole-5-sulfonamide]
0.138 µM	CC(C)c1nnc(-c2ccc(NS(=O)(=O)c3ccc4[nH]c(Nc5ccc(N6CCN(C)CC6)cc5)nc4c3)cc2)o1 [Example 605, N-(4-(5-isopropyl-1,3,4-oxadiazol-2-yl)phenyl)-2-(4-(4-methylpiperazin-1-yl)phenylamino)-1H-benzo[d]imidazole-5-sulfonamide]
< 0.01 µM	C[C@@H](NC(=O)[C@H]1CC[C@H](NS(=O)(=O)c2ccc3[nH]c(Nc4ccc(N5CCN(C)CC5)cc4)nc3c2)CC1)c1ccccc1 [Example 606, (1r,4R)-4-(2-(4-(4-methylpiperazin-1-yl)phenylamino)-1H-benzo[d]imidazole-5-sulfonamido)-N-((R)-1-phenylethyl)cyclohexanecarboxamide]
< 0.01 µM	C[C@@H](NC(=O)[C@H]1CC[C@H](NS(=O)(=O)c2ccc3[nH]c(-c4ccccc4)nc3c2)CC1)c1ccc(F)cc1 [Example 611, (1r,4R)-N-((R)-1-(4-fluorophenyl)ethyl)-4-(2-phenyl-1H-benzo[d]imidazole-5-sulfonamido)cyclohexanecarboxamide]
0.016 µM	O=C1NCCCC[C@@H]1NC(=O)[C@H]1CC[C@H](NS(=O)(=O)c2ccc3[nH]c(-c4ccccc4)nc3c2)CC1 [Example 612, (1r,4S)-N-((S)-2-oxoazepan-3-yl)-4-(2-phenyl-1H-benzo[d]imidazole-5-sulfonamido)cyclohexanecarboxamide]
0.142 µM	Cc1nc2cc(S(=O)(=O)N[C@H]3CC[C@H](C(=O)N[C@H](C)c4ccccc4)CC3)ccc2[nH]1 [Example 614, (1r,4R)-4-(2-methyl-1H-benzo[d]imidazole-5-sulfonamido)-N-((R)-1-phenylethyl)cyclohexanecarboxamide]
0.08 µM	CN(C(=O)[C@H]1CC[C@H](NS(=O)(=O)c2ccc3[nH]c(-c4ccccc4)nc3c2)CC1)C1CCCCC1 [Example 618, (1r,4r)-N-cyclohexyl-N-methyl-4-(2-phenyl-1H-benzo[d]imidazole-5-sulfonamido)cyclohexanecarboxamide]

— patent publication US8697739B2, “Bicyclic acetyl-CoA carboxylase inhibitors and uses thereof” (Novartis AG, priority 2010, dated 2014)
